Results published in US20230312587A1, “PTERIDINONE COMPOUNDS AND USES THEREOF” (Vertex Pharmaceutical Incorporated, priority 2018, published 2023).
Read-outs that look alike come from different tables or passages of the source.

What was measured:
[1] = system: Hek293 WFS1 over-expressor; assay: In vitro cell viability (CellTiter-Glo), Hek293 WFS1 over-expressor; format: cell-based; settings: for IC50: Homo sapiens
Description: WFS1 cDNA is amplified from clone RC202901 (Origene Technologies) with primers 5′-TCCGCGGCCCCAAGCTTATCGCCATGGACTCCAACACTGC-3′ (SEQ ID NO: 1), 5′-GATGGGCCCAGATCTCGAGTCAGGCCGCCGACAGGAATG-3′ (SEQ ID NO: 2) and cloned into a retroviral mammalian expression vector pCLPCX using HD Infusion (CLONTECH) at Hind3-Xhol sites using standard procedures. The resulting clone is identified as pCLPCX_WFS1.
HEK293 (ATCC, catalog #CRL-1573) cells are plated in 10 cm dishes (Corning, product #430167) into 10 mL of complete DMEM cell culture media [DMEM (Life Technologies, product #11960-051) media supplemented with 10% FBS (Hyclone, catalog #SH30071.03), antimycotic/antibiotic (Life Technologies, product #15240-062), and Glutamax (Life Technologies, product #35050-061)] at 3×10^6 cells per dish. Cells are allowed to attach and grow overnight at 37° C. in humidified 5% CO2. Cells are co-transfected with pVSV-G, pCMV-Gag/Pol and pCLPCX_WFS1 using Fugene 6 (Promega, catalog #E2691) according to manufacturer's protocol. Separately, cells are co-transfected with pVSV-G, pCMV-Gag/Pol and pCLPCX to produce control retrovirus. Cell culture media containing retrovirus (viral supernatant) is collected at 48 and 72 hours following transfection, filtered through a 0.4 uM filter, and stored at −80° C.
HEK293 cells are plated in 6 well plates (Corning, product #3516) in 2 mL of complete DMEM cell culture media at 1×10^5 cells well and allowed to attach and grow overnight at 37° C. in humidified 5% CO2. The following day, the media is replaced with viral supernatant to which 10 ug/ml of Polybrene® (Santa Cruz Biotech, catalog #sc-134220) is added. Viral supernatant is replaced 24 hours later with complete DMEM media. Transduced cells are selected in complete DMEM cell culture media containing 1 microgram/mL of puromycin (Life Technologies, catalog #A1113803).
HEK293 cells containing empty pCLPCx vector (HEK293 empty), HEK293 cells stably over-expression WFS1 (HEK293 WFS1), HepG2, and HepG2 cells where WFS1 was depleted via CRISPR/Cas9 (HepG2 WFS1 KO) cells were plated into 96-well black plates (Corning, product #3904) in 100 microliters of complete DMEM cell culture media [DMEM (Life Technologies, product #11960-051) media supplemented with 10% FBS (Hyclone, catalog #SH30071.03), antimycotic/antibiotic (Life Technologies, product #15240-062), and Glutamax (Life Technologies, product #35050-061)] at 1,000 (HEK293) or 5,000 (HepG2) cells per well. Cells were allowed to attach and grow overnight, after which compounds are added at various concentrations. Cell viability was assessed 96 hrs after compound addition with CellTiter-Glo reagent (Promega, catalog #G7570) according to manufacturer's protocol and measurement on a Pherastar luminescence plate reader (BMG Labtech).
The IC50s for the viability of both the Hek293 empty vector and WFS1 over-expressing cells are summarized in Table 47: A<0.06 μM; 0.06 μM≤B<0.6 μM; 0.6 μM≤C<3.0 μM; D≥3.0 μM.

[2] = system: Colo205-TCF/LEF-Luciferase (Luc) tumor; assay: In vivo inhibition of TCF/LEF reporter activity in Colo-205 tumors; set-up: concentration or dose not given beside the values; settings: TCF/LEF luciferase reporter in Colo-205 tumors, nu/nu mice, oral gavage
Procedure, shortened: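 Female nu/nu mice carried subcutaneous Colo205-TCF/LEF-luciferase tumours (200–500 mm^3), n=4 per group. Compound was given by oral gavage in 1:3:5:1 EtOH:DMSO:PEG-400:H2O at 10 ml/kg, with vehicle as control. Luciferase activity in tumour lysates (Steady-Glo) was normalised to BCA protein.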

[3] = HEK293, Hek293 WFS1 over-expressing cells, read-out: Hek293 WFS1 viability

Cc1nc(NCc2cnn(Cc3ccc(C(F)(F)F)nc3C(C)(C)O)c2)nc2c1NC(=O)[C@H](C)N2C [Compound 416, (7S)-2-(((1-((2-(2-hydroxypropan-2-yl)-6-(trifluoromethyl)pyridin-3-yl)methyl)-1H-pyrazol-4-yl)methyl)amino)-4,7,8-trimethyl-7,8-dihydropteridin-6(5H)-one]
IC50 [1, 3]: < 60 nM | Percent Remaining Activity at 8 hrs after Dosing [2]: 22%

CC[C@H]1C(=O)Nc2c(C)nc(NCc3cnn(Cc4ccc(C(F)(F)F)nc4)c3)nc2N1C [Compound 186, (7S)-7-ethyl-4,8-dimethyl-2-(((1-((6-(trifluoromethyl)pyridin-3-yl)methyl)-1H-pyrazol-4-yl)methyl)amino)-7,8-dihydropteridin-6(5H)-one]
IC50 [1, 3]: < 60 nM | Percent Remaining Activity at 8 hrs after Dosing [2]: 23%

Cc1nc(N[C@H]2C[C@H](Oc3cc(F)c(F)c(F)c3)C2)nc2c1N(C)C(=O)[C@H](C)N2C [Compound 253, (7S)-4,5,7,8-tetramethyl-2-((trans-3-(3,4,5-trifluorophenoxy)cyclobutyl)amino)-7,8-dihydropteridin-6(5H)-one]
IC50 [1, 3]: < 60 nM | IC50 ([1]; HEK293, cell viability, Hek293 WFS1 over-expressor, read-out: IC50): 12 nM | IC50 ([1]; HEK293, cell viability, Hek293 WFS1 over-expressor, read-out: IC50 class): < 60 nM | reduction in the IC50 on over-expression of WFS1 in Hek293 cells ([1]; cell viability, WFS1 over-expressor vs empty vector): > 1000 fold | Percent Remaining Activity at 8 hrs after Dosing [2]: 15%

Cc1nc(NCc2cnn([C@@H]3C[C@@H]3c3ccc(F)cc3)c2)nc2c1NC(=O)[C@H](C)N2C [Compound 154, (7S)-2-(((1-((1R,2R)-2-(4-fluorophenyl)cyclopropyl)-1H-pyrazol-4-yl)methyl)amino)-4,7,8-trimethyl-7,8-dihydropteridin-6(5H)-one]
IC50 [1, 3]: < 60 nM | Percent Remaining Activity at 8 hrs after Dosing [2]: 24%

Cc1nc(N[C@H]2C[C@H](Oc3ccnc(C(F)(F)F)c3)C2)nc2c1NC(=O)[C@H](C)N2C [Compound 335, (7S)-4,7,8-trimethyl-2-((trans-3-((2-(trifluoromethyl)pyridin-4-yl)oxy)cyclobutyl)amino)-7,8-dihydropteridin-6(5H)-one]
IC50 [1, 3]: < 60 nM | Percent Remaining Activity at 8 hrs after Dosing [2]: 18%

Cc1nc(NCc2cnn(Cc3cc(F)c(F)c(F)c3)c2)nc2c1NC(=O)[C@H](C)N2C [Compound 122, (7S)-4,7,8-trimethyl-2-(((1-(3,4,5-trifluorobenzyl)-1H-pyrazol-4-yl)methyl)amino)-7,8-dihydropteridin-6(5H)-one]
IC50 [1, 3]: < 60 nM | Percent Remaining Activity at 8 hrs after Dosing [2]: 16%

Cc1nc(NCc2cnn(Cc3ccc(F)nc3)c2)nc2c1NC(=O)[C@H](C(C)C)N2C [Compound 384, (7S)-2-(((1-((6-fluoropyridin-3-yl)methyl)-1H-pyrazol-4-yl)methyl)amino)-7-isopropyl-4,8-dimethyl-7,8-dihydropteridin-6(5H)-one]
IC50 [1, 3]: < 60 nM | Percent Remaining Activity at 8 hrs after Dosing [2]: 14%

Cc1nc(NCc2cnn(Cc3ccc(C(F)(F)F)cc3)c2)nc2c1NC(=O)[C@H](C)N2C [Compound 149, (7S)-4,7,8-trimethyl-2-(((1-(4-(trifluoromethyl)benzyl)-1H-pyrazol-4-yl)methyl)amino)-7,8-dihydropteridin-6(5H)-one]
IC50 [1, 3]: < 60 nM | Percent Remaining Activity at 8 hrs after Dosing [2]: 17%

Cc1nc(NCc2cnn(Cc3ccc(C(F)(F)F)nc3)c2)nc2c1NC(=O)[C@H](C1CC1)N2C [Compound 386, (7S)-7-Cyclopropyl-4,8-dimethyl-2-(((1-((6-(trifluoromethyl)pyridin-3-yl)methyl)-1H-pyrazol-4-yl)methyl)amino)-7,8-dihydropteridin-6(5H)-one]
IC50 [1, 3]: < 60 nM | Percent Remaining Activity at 8 hrs after Dosing [2]: 19%

Cc1cc(F)ncc1Cn1cc(CNc2nc(C)c3c(n2)N(C)[C@@H](C(C)C)C(=O)N3)cn1 [Compound 423, (7S)-2-(((1-((6-fluoro-4-methylpyridin-3-yl)methyl)-1H-pyrazol-4-yl)methyl)amino)-7-isopropyl-4,8-dimethyl-7,8-dihydropteridin-6(5H)-one]
IC50 [1, 3]: < 60 nM | Percent Remaining Activity at 8 hrs after Dosing [2]: 70%
